The source of these data is patent US9994616B2, “c-Met protein agonist” (The University of Tokyo, priority 2013, dated 2018).

Where a SMILES comes first, the peptide text is derived from it. Bridges are numbered along the chain shown (N, C = ends). Roman numbers before positions name the chains, in order. Where no end group is shown, it is not given here. [ ]: non-standard residue; d: D form. NMeR = CN[C@@H](CCCNC(=N)N)C(=O)O; NMeT = CN[C@H](C(=O)O)[C@@H](C)O; NMeN = CN[C@@H](CC(N)=O)C(=O)O; NMeC = CN[C@@H](CS)C(=O)O; βAla = NCCC(=O)O

Data set [1] is described as follows: Stability of thioether macrocyclic peptide in human serum pool (LC-MS). The data set is classed as in vitro ADME. Conditions: for remaining at 1 h, 1 μM: Table 8; for Stability in serum (in words): human serum. As for the experimental part:
A DMSO solution of the thioether macrocyclic peptide to be evaluated was dissolved in a human serum pool to give a concentration of 1 μM. The human serum pool containing the thioether macrocyclic peptide thus prepared was incubated at 37° C.
After an elapse of the evaluation time, the human serum pool containing the thioether macrocyclic peptide was placed on ice and a peptide serving as an internal standard was added and mixed to give a concentration of 1 μM. The resulting mixture was added to a solid-phase extraction column (Hyper Sep SPE column, Thermo Scientific), washed with a 5% aqueous acetonitrile solution containing 0.1% TFA, and then purified by eluting with a 70% aqueous acetonitrile solution containing 0.1% TFA.
The molecular weight of the purified product was analyzed using LC-MS and the cleavage site in the serum was identified. In addition, the thioether macrocyclic peptide which had remained without being cleaved was quantitatively determined by comparing an amount relative to the internal standard at every incubation time.

For a further data set, the target named is c-Met-Fc (Homo sapiens, UniProt P08581). Nature of the data set: Binding ability by surface plasmon resonance (SPR, Biacore). Conditions: for kon: read-out: ka. As for the experimental part: Binding ability of the thioether macrocyclic peptide was evaluated by SPR measurement using Biacore (GE Healthcare).
As a sensor chip, Sensor Chip CM5 was used and an anti-IgG antibody was immobilized on a measurement lane and a control lane by using Human Antibody Capture Kit.
On the measurement lane was immobilized c-Met-Fc, while on the control lane was immobilized Fc protein.
As a running buffer, HBS-EP+ buffer containing 0.1% DMSO was used and a dissociation constant of the thioether macrocyclic peptide was calculated at 5 different concentrations by using the single-kinetics method.
On the technique in general: Surface plasmon resonance follows binding to a sensor surface in real time, without labels.

The subject of a further data set is human HuCCT1 cells. Nature of the data set: Cell migration of HuCCT1 cells on pore-containing plate. Type of data set: cell-based. Conditions: Table 13. As for the experimental part:
In addition, human HuCCT1 cells were seeded on a pore-containing plate and cultured in a medium mixed with each of the dimeric peptides to evaluate activation of cell migration ability.

The target of another data set is T1, c-Met (Homo sapiens, UniProt P08581).
T1 construct: endogenous in cells; host or cells: EHMES-1 (human mesothelioma)
The data set is described as follows: Activity of dimeric peptide by ELISA (c-Met phosphorylation level in EHMES-1 cells). The data set is classed as cell-based. Conditions: for Activity (c-Met phosphorylation level by ELISA): Table 12, EHMES-1 cells, 10 minutes stimulation; for c-Met phosphorylation: Table 13. The protocol:
Each dimeric peptide was added to human EHMES-1 cells and the mixture was incubated for 10 minutes to stimulate the cells.
As a control experiment, a recombinant human HGF protein was added and the mixture was incubated for 10 minutes to stimulate cells.
A phosphorylation level of c-Met was quantitatively analyzed using ELISA.

Where [2] appears, read: Table 11, monomer and dimeric peptides.

T1 sequence (P08581 25-1390): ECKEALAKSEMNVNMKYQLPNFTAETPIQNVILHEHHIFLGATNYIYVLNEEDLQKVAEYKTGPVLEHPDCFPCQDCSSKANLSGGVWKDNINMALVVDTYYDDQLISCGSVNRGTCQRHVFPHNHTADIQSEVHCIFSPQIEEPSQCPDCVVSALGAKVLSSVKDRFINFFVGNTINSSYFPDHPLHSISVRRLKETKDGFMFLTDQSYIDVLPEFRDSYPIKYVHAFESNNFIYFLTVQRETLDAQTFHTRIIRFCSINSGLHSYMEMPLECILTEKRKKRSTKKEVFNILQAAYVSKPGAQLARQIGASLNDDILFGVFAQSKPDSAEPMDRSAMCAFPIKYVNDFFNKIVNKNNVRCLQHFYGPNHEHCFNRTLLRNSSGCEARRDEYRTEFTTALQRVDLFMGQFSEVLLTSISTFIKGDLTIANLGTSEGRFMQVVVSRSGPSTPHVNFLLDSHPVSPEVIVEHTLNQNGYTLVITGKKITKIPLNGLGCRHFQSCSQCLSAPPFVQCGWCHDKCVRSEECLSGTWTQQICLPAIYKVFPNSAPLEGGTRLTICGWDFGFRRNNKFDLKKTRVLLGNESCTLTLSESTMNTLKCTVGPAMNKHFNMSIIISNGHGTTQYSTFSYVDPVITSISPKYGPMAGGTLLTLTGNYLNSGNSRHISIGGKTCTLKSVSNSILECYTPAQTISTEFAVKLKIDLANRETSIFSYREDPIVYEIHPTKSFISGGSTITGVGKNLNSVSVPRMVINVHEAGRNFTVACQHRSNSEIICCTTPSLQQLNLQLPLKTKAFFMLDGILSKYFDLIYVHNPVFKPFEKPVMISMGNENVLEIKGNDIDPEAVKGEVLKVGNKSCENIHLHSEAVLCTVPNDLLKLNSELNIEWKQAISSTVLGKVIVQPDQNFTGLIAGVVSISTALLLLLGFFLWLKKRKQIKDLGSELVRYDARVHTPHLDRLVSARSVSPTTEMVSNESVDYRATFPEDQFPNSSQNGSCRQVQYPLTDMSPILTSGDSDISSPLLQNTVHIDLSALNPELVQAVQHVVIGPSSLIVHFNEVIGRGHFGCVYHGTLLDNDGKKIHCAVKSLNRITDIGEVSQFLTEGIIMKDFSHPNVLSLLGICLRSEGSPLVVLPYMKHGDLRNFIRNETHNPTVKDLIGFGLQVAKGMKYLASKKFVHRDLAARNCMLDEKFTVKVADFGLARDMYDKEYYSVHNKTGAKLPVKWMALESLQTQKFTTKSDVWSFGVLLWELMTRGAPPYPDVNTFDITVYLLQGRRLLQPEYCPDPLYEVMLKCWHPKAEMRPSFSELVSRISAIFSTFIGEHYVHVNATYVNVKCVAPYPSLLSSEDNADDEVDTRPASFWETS
Sequence of c-Met-Fc (P08581 with tags, fused parts or gaps limits assumed): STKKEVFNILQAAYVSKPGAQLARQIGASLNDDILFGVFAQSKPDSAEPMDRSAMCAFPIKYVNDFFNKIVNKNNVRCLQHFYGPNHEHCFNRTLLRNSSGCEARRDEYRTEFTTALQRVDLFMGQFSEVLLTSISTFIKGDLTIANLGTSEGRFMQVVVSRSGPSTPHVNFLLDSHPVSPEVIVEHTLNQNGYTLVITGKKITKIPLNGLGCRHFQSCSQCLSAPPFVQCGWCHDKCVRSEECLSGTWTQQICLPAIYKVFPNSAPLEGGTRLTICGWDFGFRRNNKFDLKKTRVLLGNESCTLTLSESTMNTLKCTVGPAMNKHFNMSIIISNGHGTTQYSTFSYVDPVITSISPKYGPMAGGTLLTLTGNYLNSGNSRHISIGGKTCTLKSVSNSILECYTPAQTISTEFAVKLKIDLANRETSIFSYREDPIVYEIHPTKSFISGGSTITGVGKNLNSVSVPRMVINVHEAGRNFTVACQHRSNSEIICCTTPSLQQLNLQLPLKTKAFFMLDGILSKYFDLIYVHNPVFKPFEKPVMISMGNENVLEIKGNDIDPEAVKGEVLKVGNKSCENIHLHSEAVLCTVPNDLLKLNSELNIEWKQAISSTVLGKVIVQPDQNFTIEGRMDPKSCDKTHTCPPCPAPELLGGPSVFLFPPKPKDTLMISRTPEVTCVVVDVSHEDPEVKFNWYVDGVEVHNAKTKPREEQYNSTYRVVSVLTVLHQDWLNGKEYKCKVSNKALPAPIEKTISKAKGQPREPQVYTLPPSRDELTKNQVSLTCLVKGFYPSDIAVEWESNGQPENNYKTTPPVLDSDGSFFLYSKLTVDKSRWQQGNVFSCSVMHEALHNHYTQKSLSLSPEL
Sequence of c-Met-Fc (P08581 25-307 limits assumed): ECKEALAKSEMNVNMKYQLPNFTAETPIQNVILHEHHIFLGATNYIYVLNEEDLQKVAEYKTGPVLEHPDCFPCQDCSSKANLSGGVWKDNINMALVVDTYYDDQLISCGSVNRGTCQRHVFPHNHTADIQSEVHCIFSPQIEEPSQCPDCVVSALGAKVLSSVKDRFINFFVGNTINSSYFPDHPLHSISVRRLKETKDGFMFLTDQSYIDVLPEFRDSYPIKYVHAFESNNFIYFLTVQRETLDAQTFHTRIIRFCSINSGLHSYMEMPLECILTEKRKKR

As for `CC(C)C[C@@H]1NC(=O)[C@H](CC(N)=O)NC(=O)[C@H](Cc2c[nH]c3ccccc23)NC(=O)[C@H](C(C)C)NC(=O)[C@H](CCC(=O)O)NC(=O)[C@H](Cc2c[nH]cn2)NC(=O)[C@H]([C@@H](C)O)NC(=O)[C@H](CCCNC(=N)N)N(C)C(=O)[C@H](CCCNC(=N)N)NC(=O)[C@H](CC(N)=O)NC(=O)[C@H](Cc2ccccc2)NC(=O)[C@H](CCC(N)=O)NC(=O)[C@H](CCCNC(=N)N)NC(=O)[C@@H](Cc2ccc(O)cc2)NC(=O)CSC[C@@H](C(=O)NCC(N)=O)NC(=O)[C@H](CC(=O)O)NC1=O` [Peptide N7] ({CH2CO}-[dY]RQFNR[NMeR]THEVWNLDCG-NH2; thioether N-16; C-terminus assumed), the share remaining (as a rule, the share of the starting amount still present when the sample was taken) at 1 h, 1 μM in data set [1] (human serum pool, 37° C., 1 μM) came to 92%. Besides, in data set [1], the “Stability in serum (in words)” value is “drastically improved”. In addition, on c-Met-Fc, the “Binding ability (in words)” value is “do not show marked deterioration”. At c-Met-Fc (Table 8, c-Met-Fc), the kd is listed as 6.9 10^−2 s^−1 and the kon came to 53000 M⁻¹ s⁻¹.
For the compound `CC(C)C[C@@H]1NC(=O)[C@H](CC(N)=O)NC(=O)[C@H](Cc2c[nH]c3ccccc23)NC(=O)[C@H](C(C)C)NC(=O)[C@H](CCC(=O)O)NC(=O)[C@H](Cc2c[nH]cn2)NC(=O)[C@H]([C@@H](C)O)N(C)C(=O)[C@H](CCCNC(=N)N)NC(=O)[C@H](CCCNC(=N)N)NC(=O)[C@H](CC(N)=O)NC(=O)[C@H](Cc2ccccc2)NC(=O)[C@H](CCC(N)=O)NC(=O)[C@H](CCCNC(=N)N)NC(=O)[C@@H](Cc2ccc(O)cc2)NC(=O)CSC[C@@H](C(=O)NCC(N)=O)NC(=O)[C@H](CC(=O)O)NC1=O` [Peptide N8] ({CH2CO}-[dY]RQFNRR[NMeT]HEVWNLDCG-NH2; thioether N-16; C-terminus assumed), the amount remaining at 1 h, 1 μM in data set [1] (human serum pool, 37° C., 1 μM) came out at 81%. The “Stability in serum (in words)” value in data set [1] is reported as “drastically improved”. Also, the kon at c-Met-Fc (Table 8, c-Met-Fc) turned out to be 27000 M⁻¹ s⁻¹.
`CC(C)C[C@@H]1NC(=O)[C@H](CC(N)=O)N(C)C(=O)[C@H](Cc2c[nH]c3ccccc23)NC(=O)[C@H](C(C)C)NC(=O)[C@H](CCC(=O)O)NC(=O)[C@H](Cc2c[nH]cn2)NC(=O)[C@H]([C@@H](C)O)NC(=O)[C@H](CCCNC(=N)N)NC(=O)[C@H](CCCNC(=N)N)NC(=O)[C@H](CC(N)=O)NC(=O)[C@H](Cc2ccccc2)NC(=O)[C@H](CCC(N)=O)NC(=O)[C@H](CCCNC(=N)N)NC(=O)[C@@H](Cc2ccc(O)cc2)NC(=O)CSC[C@@H](C(=O)NCC(N)=O)NC(=O)[C@H](CC(=O)O)NC1=O` [Peptide N13] ({CH2CO}-[dY]RQFNRRTHEVW[NMeN]LDCG-NH2; thioether N-16; C-terminus assumed): the fraction remaining at 1 h, 1 μM in data set [1] (human serum pool, 37° C., 1 μM) turned out to be 4.5%. In addition, the kon at c-Met-Fc (Table 8, c-Met-Fc) was found to be 78000 M⁻¹ s⁻¹.
In turn, `CC(C)C[C@@H]1NC(=O)[C@H](CC(N)=O)NC(=O)[C@H](Cc2c[nH]c3ccccc23)NC(=O)[C@H](C(C)C)NC(=O)[C@H](CCC(=O)O)NC(=O)[C@H](Cc2c[nH]cn2)NC(=O)[C@H]([C@@H](C)O)NC(=O)[C@H](CCCNC(=N)N)NC(=O)[C@H](CCCNC(=N)N)NC(=O)[C@H](CC(N)=O)NC(=O)[C@H](Cc2ccccc2)NC(=O)[C@H](CCC(N)=O)NC(=O)[C@H](CCCNC(=N)N)NC(=O)[C@@H](Cc2ccc(O)cc2)NC(=O)CSC[C@@H](C(=O)NCC(N)=O)N(C)C(=O)[C@H](CC(=O)O)NC1=O` [Peptide N16] ({CH2CO}-[dY]RQFNRRTHEVWNLD[NMeC]G-NH2; thioether N-16; C-terminus assumed) showed an amount remaining at 1 h, 1 μM in data set [1] (human serum pool, 37° C., 1 μM) of 12%. Further, in data set [1] (Table 9, human serum pool, 37° C., 1 μM, 4 h), the share remaining at 4 h, 1 μM was under 12%. On c-Met-Fc (Table 8, c-Met-Fc), the kd was 1.0 10^−2 s^−1 and the kon came to 980000 M⁻¹ s⁻¹. At c-Met-Fc (Table 9, c-Met-Fc), the ka is given as 9.8 10^5 M^−1s^−1 and the kd is listed as 1.0 10^−2s^−1.
For “D4-3 Bis-MAL-PEG11: dimeric peptide: two D4-3 macrocycles linked through C-terminal Cys by Bis-MAL-PEG11 linker ({CH2CO}-[dY]RQFNRRTHEVWNLDCGC; thioether N-16; not fully specified (residue 18); also: dimer: two copies joined by Bis-MAL-PEG11, linker at 18 via Bis-MAL-PEG11, other end not in the chain)”, the Cell migration entry with human HuCCT1 cells is given as “Activate”. Further, in the data set with c-Met, the “Activity (c-Met phosphorylation level by ELISA)” value (“Activity” for short) was “High” and the c-Met phosphorylation result is reported as “Promote”. Besides, in the data set with c-Met-Fc (setting [2]), the ka is given as 1.2 10^6 M^−1s^−1 and the kd was 0.11 10^−2 s^−1.
With “D4-3NMe Bis-MAL-PEG11: dimeric peptide: two D4-3NMe macrocycles linked through C-terminal Cys by Bis-MAL-PEG11 linker ({CH2CO}-[dY]RQFNRRTHEVWNLDCGC; thioether N-16; not fully specified (residue 18); also: two amino acids N-methylated (N6 + N16), dimer: two D4-3NMe macrocycles linked through C-terminal Cys by Bis-MAL-PEG11)”, the Cell migration entry in the data set with human HuCCT1 cells is recorded as “Activate”. Further, in the data set with c-Met, the “Activity” value is given as “High” and the c-Met phosphorylation result is recorded as “Promote”. Moreover, in the data set with c-Met-Fc (setting [2]), the ka is listed as 0.49 10^6 M^−1s^−1 and the kd is recorded as 0.040 10^−2 s^−1.
On to “D4-3scr BMH: dimer of the negative control peptide D4-3scr with BMH linker ({CH2CO}-YERVNHLFRNQTWDRCGC; thioether N-16 (inferred); also: dimer of D4-3scr with BMH linker) [reference compound]”, for which the Cell migration result in the data set on human HuCCT1 cells is given as “Not activate”. Also, in the data set with c-Met, the “Activity” value was “No” and the c-Met phosphorylation entry is recorded as “Not promote”. Besides, the KD entry in the data set with c-Met-Fc (setting [2]) is on record as “Not binding”.
“D5-4 Bis-MAL-PEG11: dimeric peptide: two D5-4 macrocycles linked through C-terminal Cys by Bis-MAL-PEG11 linker (peptide 1 {CH2CO}-[dY]WYYAWDQTYKAFPCG; peptide 2 {CH2CO}-[dY]WYYAWDQTYKAFPCG; thioether I:N-I:15, II:N-II:15; not fully specified (C-terminus); also: dimer: two chains joined by Bis-MAL-PEG11 through an added C-terminal Cys not in the letters)”: the Cell migration result with human HuCCT1 cells is “Activate”. In the data set with c-Met, the “Activity” value is on record as “High” and the c-Met phosphorylation entry is “Promote”. Moreover, in the data set with c-Met-Fc (setting [2]), the ka is listed as 5.3 10^6 M^−1s^−1 and the kd is listed as 1.1 10^−2 s^−1.
For the compound “L5-2 Bis-MAL-PEG3: dimeric peptide: two L5-2 macrocycles linked through C-terminal Cys by Bis-MAL-PEG3 linker ({CH2CO}-YISWNEFNSPNWRFITCG[βAla]C-NH2; thioether N-17; not fully specified (residue 20); also: dimer: two copies joined by Bis-MAL-PEG3, linker at 20 via Bis-MAL-PEG3, other end not in the chain)”, in the data set with human HuCCT1 cells, the Cell migration result is reported as “Activate”. Moreover, in the data set with c-Met, the “Activity” value is listed as “High” and the c-Met phosphorylation entry is recorded as “Promote”. Besides, in the data set with c-Met-Fc (setting [2]), the ka is 0.22 10^6 M^−1s^−1 and the kd was 0.042 10^−2 s^−1.
